Results published in patent US20250326753A1, “DUAL CXCR4-BTK INHIBITORS” (X4 Pharmaceuticals, Inc., priority 2022, published 2025).
Like-named read-outs stand apart in the source and are kept apart here.

Tests used:
Format in all cases: biochemical
[1] = molecular target: T1, JAK3 (Homo sapiens, UniProt P52333); experiment: PanQinase kinase panel: JAK3; conditions: for inhibition at 1 µM: read-out: INHIBITORY EFFECT @ 1 uM: JAK3
T1 construct: purchased Reaction Biology Europe GmbH
T1 sequence (P52333 1-1124): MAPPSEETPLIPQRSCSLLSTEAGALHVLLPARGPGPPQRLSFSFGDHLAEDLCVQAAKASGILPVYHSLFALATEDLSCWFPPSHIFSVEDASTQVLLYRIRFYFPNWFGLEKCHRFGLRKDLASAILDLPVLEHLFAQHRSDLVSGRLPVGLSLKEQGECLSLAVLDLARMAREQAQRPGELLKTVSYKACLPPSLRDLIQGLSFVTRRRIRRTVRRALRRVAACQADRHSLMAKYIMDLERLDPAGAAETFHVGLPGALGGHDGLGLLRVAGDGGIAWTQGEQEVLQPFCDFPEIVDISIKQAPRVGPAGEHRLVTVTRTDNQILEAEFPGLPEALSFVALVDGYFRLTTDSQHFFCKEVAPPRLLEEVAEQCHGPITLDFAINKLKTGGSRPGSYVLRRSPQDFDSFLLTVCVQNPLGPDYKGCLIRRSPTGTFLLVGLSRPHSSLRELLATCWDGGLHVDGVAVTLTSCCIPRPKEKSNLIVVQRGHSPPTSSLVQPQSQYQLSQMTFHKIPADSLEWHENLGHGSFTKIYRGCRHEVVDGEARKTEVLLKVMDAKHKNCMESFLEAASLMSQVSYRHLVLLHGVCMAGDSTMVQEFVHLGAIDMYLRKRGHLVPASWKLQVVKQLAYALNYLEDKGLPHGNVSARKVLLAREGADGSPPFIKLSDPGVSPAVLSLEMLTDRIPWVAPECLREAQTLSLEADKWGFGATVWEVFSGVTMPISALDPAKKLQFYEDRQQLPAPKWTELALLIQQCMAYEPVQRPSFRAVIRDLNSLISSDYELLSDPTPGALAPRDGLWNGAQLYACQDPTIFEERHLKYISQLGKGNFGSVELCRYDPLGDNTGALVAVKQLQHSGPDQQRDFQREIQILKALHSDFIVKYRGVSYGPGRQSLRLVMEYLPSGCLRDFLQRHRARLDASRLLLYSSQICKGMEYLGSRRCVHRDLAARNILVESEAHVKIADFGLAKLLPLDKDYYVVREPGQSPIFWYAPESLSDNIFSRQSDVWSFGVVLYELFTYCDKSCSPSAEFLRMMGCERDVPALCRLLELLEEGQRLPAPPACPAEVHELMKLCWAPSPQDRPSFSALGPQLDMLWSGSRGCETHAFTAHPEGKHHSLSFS
Protocol: (§1) Screening procedures were performed in accordance with the company's on-line protocol [accessed on-line Mar.
(§2) For each kinase, the median value of the cpm of three wells was defined as “low control” (n=3). This value reflects unspecific binding of radioactivity to the plate in the absence of a protein kinase but in the presence of the substrate. Additionally, for each kinase the median value of the cpm of three other wells was taken as the “high control,” i.e. full activity in the absence of any inhibitor (n=3). The difference between high and low control of each enzyme was taken as 100% activity.
As part of the data evaluation the low control of each kinase was subtracted from the high control value as well as from their corresponding “compound values”.

[2] = molecular target: T2, MST1 (Homo sapiens, UniProt Q13043); experiment: PanQinase kinase panel: MST1; conditions: read-out: INHIBITORY EFFECT @ 1 uM: MST1
T2 construct: purchased Reaction Biology Europe GmbH
T2 sequence (Q13043 1-487): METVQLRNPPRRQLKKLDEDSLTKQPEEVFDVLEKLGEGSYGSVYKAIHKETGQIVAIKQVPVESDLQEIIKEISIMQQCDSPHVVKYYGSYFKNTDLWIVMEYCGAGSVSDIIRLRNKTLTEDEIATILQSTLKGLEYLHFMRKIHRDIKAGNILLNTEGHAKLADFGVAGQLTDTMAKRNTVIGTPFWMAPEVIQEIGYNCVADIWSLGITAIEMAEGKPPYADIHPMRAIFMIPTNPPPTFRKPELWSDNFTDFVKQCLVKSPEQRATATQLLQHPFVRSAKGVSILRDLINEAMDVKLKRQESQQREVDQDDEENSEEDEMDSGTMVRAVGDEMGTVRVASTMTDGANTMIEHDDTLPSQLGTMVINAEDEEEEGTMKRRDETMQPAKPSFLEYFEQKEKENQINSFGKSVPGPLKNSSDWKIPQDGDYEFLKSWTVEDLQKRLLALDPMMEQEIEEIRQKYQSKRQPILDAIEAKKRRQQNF
Protocol: as §1, §2
(§3) As part of the data evaluation the low control of each kinase was subtracted from the high control value as well as from their corresponding “compound values”. The residual activity (in %) for each compound well was calculated by using the following formula: Res. Activity (%)=100×[(signal of compound−low control)/(high control−low control)].

[3] = molecular target: T3, DDR2 (Homo sapiens, UniProt Q16832); experiment: PanQinase kinase panel: DDR2
T3 construct: purchased Reaction Biology Europe GmbH
T3 sequence (Q16832 22-855): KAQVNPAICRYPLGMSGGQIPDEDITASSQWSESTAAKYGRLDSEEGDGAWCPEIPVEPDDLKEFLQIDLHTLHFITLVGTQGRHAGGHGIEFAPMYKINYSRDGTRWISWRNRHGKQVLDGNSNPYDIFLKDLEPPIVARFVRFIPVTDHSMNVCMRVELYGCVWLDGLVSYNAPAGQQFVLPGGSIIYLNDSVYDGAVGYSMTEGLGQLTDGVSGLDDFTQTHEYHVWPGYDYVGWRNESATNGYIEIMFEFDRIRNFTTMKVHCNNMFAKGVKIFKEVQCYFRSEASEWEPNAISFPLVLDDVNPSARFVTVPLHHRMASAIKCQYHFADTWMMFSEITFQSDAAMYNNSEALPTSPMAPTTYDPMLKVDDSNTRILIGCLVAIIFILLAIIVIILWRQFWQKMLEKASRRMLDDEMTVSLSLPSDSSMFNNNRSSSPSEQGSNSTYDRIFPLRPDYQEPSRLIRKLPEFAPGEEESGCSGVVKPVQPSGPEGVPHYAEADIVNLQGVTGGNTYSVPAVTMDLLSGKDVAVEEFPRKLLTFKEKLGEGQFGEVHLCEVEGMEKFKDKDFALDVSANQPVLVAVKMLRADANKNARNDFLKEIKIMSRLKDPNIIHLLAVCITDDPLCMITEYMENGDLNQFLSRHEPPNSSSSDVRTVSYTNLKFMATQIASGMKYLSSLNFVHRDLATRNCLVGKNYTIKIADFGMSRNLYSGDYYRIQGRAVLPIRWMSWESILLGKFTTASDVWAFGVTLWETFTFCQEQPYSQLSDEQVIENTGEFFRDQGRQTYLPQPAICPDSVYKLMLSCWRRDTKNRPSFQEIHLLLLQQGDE
Protocol: as §1, §2, §3

[4] = molecular target: T4, MAP4K5 (Homo sapiens, UniProt Q9Y4K4); experiment: PanQinase kinase panel: MAP4K5; conditions: read-out: INHIBITORY EFFECT @ 1 uM: MAP4K5
T4 construct: purchased Reaction Biology Europe GmbH
Protocol: as §1, §2, §3

[5] = at 1 μM, read-out: inhibition of DDR2
[6] = read-out: INHIBITORY EFFECT @ 1 uM: DDR2

T4 sequence (Q9Y4K4 whole entry): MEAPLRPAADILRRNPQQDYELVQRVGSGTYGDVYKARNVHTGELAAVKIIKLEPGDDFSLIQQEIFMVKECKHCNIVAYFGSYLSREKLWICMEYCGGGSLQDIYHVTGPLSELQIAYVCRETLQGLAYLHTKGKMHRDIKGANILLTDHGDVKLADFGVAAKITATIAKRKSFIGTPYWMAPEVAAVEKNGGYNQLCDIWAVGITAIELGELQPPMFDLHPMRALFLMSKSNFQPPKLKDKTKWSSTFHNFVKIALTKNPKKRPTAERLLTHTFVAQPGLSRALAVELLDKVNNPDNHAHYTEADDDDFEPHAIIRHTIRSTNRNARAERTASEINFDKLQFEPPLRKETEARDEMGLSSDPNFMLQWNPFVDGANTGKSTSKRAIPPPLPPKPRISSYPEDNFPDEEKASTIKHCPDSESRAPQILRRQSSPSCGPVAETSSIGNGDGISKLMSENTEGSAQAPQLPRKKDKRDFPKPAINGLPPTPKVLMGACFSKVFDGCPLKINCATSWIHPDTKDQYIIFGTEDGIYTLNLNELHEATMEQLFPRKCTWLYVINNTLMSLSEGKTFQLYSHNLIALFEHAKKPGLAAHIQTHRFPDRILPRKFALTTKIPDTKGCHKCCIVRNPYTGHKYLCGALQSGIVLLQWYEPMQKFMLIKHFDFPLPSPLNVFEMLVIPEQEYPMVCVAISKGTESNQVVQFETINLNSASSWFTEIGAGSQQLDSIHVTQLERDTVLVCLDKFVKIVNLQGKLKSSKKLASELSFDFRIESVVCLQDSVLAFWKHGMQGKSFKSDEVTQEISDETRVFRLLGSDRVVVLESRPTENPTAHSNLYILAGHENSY

| SMILES | inhibition at 1 µM [1] [%] | inhibition at 1 µM [2] [%] | inhibition at 1 µM [3, 5] [%] | inhibition at 1 µM [3, 6] [%] | inhibition at 1 µM [4] [%] | INHIBITORY EFFECT @ 1 uM: JAK3 ([1]; 1 uM) |
| --- | --- | --- | --- | --- | --- | --- |
| O=C(c1ccc(Oc2ccccc2)cc1Cl)c1c[nH]c2ncnc(N[C@@H]3CC[C@@H](CO)OC3)c12 [ARQ-531, (2-chloro-4-phenoxyphenyl) (4-(((3R,6S)-6-(hydroxymethyl)tetrahydro-2H-pyran-3-yl)amino)-7H-pyrrolo[2,3-d]pyrimidin-5-yl) methanone] | 50 to 69 | 70 to 89 | ≥ 50 | 50 to 69 | 50 to 69 | – |
| Cc1cccnc1[C@H]1CCC[C@@H](c2ncccc2C)N1CCN1CCN(C(=O)c2ccc(-c3cc4c(-c5cccc(NC(=O)c6ccccc6)c5C)ncnc4[nH]3)cc2)CC1 [Compound I-10, N-(3-(6-(4-(4-(2-((2R,6S)-2,6-bis(3-methylpyridin-2-yl)piperidin-1-yl)ethyl)piperazine-1-carbonyl)phenyl)-7H-pyrrolo[2,3-d]pyrimidin-4-yl)-2-methylphenyl)benzamide] | < 50 | < 50 | 50 to 89 | 70 to 89 | < 50 | – |
| COc1ccc(F)cc1C(=O)NCc1ccc(-c2nn([C@@H](C)C(F)(F)F)c(N)c2C(N)=O)cc1 [LOXO-305, pirtobrutinib] | < 50 | < 50 | – | < 50 | < 50 | – |
| C=CC(=O)N1CCC([C@@H]2CCNc3c(C(N)=O)c(-c4ccc(Oc5ccccc5)cc4)nn32)CC1 [Zanubrutinib, (7S)-2-(4-phenoxyphenyl)-7-(1-prop-2-enoylpiperidin-4-yl)-4,5,6,7-tetrahydropyrazolo[1,5-a]pyrimidine-3-carboxamide] | – | < 50 | – | < 50 | < 50 | + (Below 50% Inhibition at 1 uM) |
